Assay results taken from patent US20190090524A1, “NOVEL COMPOSITIONS FOR FLAVOR ENHANCEMENT” (INTERNATIONAL FLAVORS & FRAGRANCES INC., priority 2016, published 2019).

Columns and labels:
Format in all cases: in vivo
[1] = Alcohol sensation of alcohol solutions with 25 ppb β-sitosterol, panel comparison with higher ABV solutions
Method: (C) A β-sitosterol solution (prepared in Example I) was added to alcohol solutions at 8.75% ABV, 17.5% ABV and 21.75% ABV (prepared in Example I), respectively, to yield a final concentration of 25 ppb. The alcohol sensation of the obtained samples was evaluated and compared by a panel with alcohol solutions at higher levels of ABV, respectively.

[2] = Carbonation sensation in carbonated water (7.2 g/L CO2) with 0.1 to 50 ppt β-sitosterol
Method: (B) A series of β-sitosterol solutions (prepared in Example I) were added to the carbonated water (7.2 g/L CO2) (prepared in Example I) to yield final concentrations ranging from 0.1 to 50 ppt. The carbonation sensation of the obtained samples containing different amounts of […] was evaluated.

[3] = Alcohol sensation intensity in 6% ABV solution, panel, scale 0 to 10; settings: mean; 100 ppb in solution of 6% ABV; scale 0 to 10 (0=none, 4=medium, 7=high, 10=extremely high); p<0.01 vs 6% ABV alone
Method: (A) A β-sitosterol solution (prepared in Example I) was added to the alcohol solution at 6% ABV (prepared in Example I) to yield a final concentration of 100 ppb.
The alcohol sensation of the obtained sample was evaluated and compared by a panel with the alcohol solution at 6% ABV using an intensity scale of 0 to 10, where 0=none, 4=medium, 7=high and 10=extremely high. The intensity of alcohol sensation was rated. Mean (“Alcohol Intensity”) and standard error of the mean (“SE”, +) were obtained.

[4] = Alcohol sensation in 17.5% ABV solution with 3 to 500 ppb β-sitosterol
Method: (B) A series of β-sitosterol solutions (prepared in Example I) were added to the alcohol solution at 17.5% ABV (prepared in Example I) to yield final concentrations of β-sitosterol ranging from 3 to 500 ppb. The alcohol sensation of the obtained samples containing different amounts of β-sitosterol was evaluated.

[5] = Carbonation effect intensity in carbonated water (7.2 g/L CO2), panel, scale 0 to 10; settings: mean; 2.5 ppt in carbonated water 7.2 g/L CO2; scale 0 to 10 (0=none, 4=medium, 7=high, 10=extremely high); p<0.01 vs carbonated water alone
Method: (A) A β-sitosterol solution (prepared in Example I) was added to the carbonated water (7.2 g/L CO2) (prepared in Example I) to yield a final concentration of 2.5 ppt.
The carbonation effect of the obtained sample was evaluated and compared by a panel with the carbonated water using an intensity scale of 0 to 10, where 0=none, 4=medium, 7=high and 10=extremely high. The intensity of carbonation effect was rated. Mean (“Carbonation Intensity”) and standard error of the mean (“SE”, +) were obtained.

[6] = Carbonation sensation in carbonated water of 6.0, 7.2 and 8.0 g/L CO2 with 2.5 ppt β-sitosterol; settings: 2.5 ppt in carbonated water of 6.0, 7.2 and 8.0 g/L CO2, all samples
Method: (C) A β-sitosterol solution (prepared in Example I) was added to carbonated water of 6.0, 7.2 and 8.0 g/L CO2 (prepared in Example I), respectively, to yield a final concentration of 2.5 ppt. The carbonation sensation of the obtained samples was evaluated.

[7] = Alcohol impression in alcohol-free beer, panel comparison with alcohol solutions; settings: 25 ppb in Brahma 0.0% alcohol free beer
Method: 1. […] 2. Alcohol solutions containing varying amounts of ethanol (Alcohol by Volume, “ABV”) were prepared as follows: • Alcohol solutions at 1% ABV, 2% ABV, 2.5% ABV, 3% ABV and 5% ABV were prepared by adding varying amounts of ethanol in Brahma 0.0% alcohol-free beer (Anheuser-Busch InBev); • Alcohol solution at 6% ABV was prepared by adding ethanol in water; and • Alcohol solutions with ABV ranging from 8.75% to 50% were prepared by diluting CAPTAIN MORGAN® Original Spiced Rum (35% ABV) (Diageo North America Inc.) in varying amounts of water. 3. Carbonated water containing carbon dioxide at 6.0, 7.2 and 8.0 g/L, respectively, were prepared.
A β-sitosterol solution (prepared in Example I) was added in Brahma 0.0% alcohol free beer to yield a final concentration of 25 ppb. The alcohol impression of the obtained sample was evaluated and compared by a panel with alcohol solutions at 1% ABV, 2% ABV, 2.5% ABV, 3% ABV and 5% ABV (prepared in Example I). 3-Sitosterol (25 ppb) provided an equal level of alcohol impression as the alcohol solution at 2.5% ABV.

[8] = Flavor of β-sitosterol solutions in water; settings: 2.5 to 600 ppb

## CC[C@H](CC[C@@H](C)[C@H]1CC[C@H]2[C@@H]3CC=C4C[C@@H](O)CC[C@]4(C)[C@H]3CC[C@]12C)C(C)C [β-sitosterol, (3S,8S,9S,10R,13R,14S,17R)-17-((1R,4R)-4-ethyl-1,5-dimethyl-hexyl)-10,13-dimethyl-2,3,4,7,8,9,10,11,12,13,14,15,16,17-tetradecahydro-1H-cyclopenta[a]phenanthren-3-ol]
[1]; 25 ppb in alcohol solution at 8.75% ABV
  alcohol sensation at the level of an alcohol solution: 10 % ABV
[1]; 25 ppb in alcohol solution at 17.5% ABV
  alcohol sensation at the level of an alcohol solution: 22.5 % ABV
[1]; 25 ppb in alcohol solution at 21.75% ABV
  alcohol sensation at the level of an alcohol solution: 35 % ABV
[2]; 0.1 ppt in carbonated water 7.2 g/L CO2
  carbonation perception: slight increase in carbonation perception
[2]; 2.5 ppt in carbonated water 7.2 g/L CO2
  carbonation perception: clear increase in carbonation perception
[2]; 5 ppt or higher in carbonated water 7.2 g/L CO2
  enhancement of carbonation effect: reached a stable plateau
[3]
  Alcohol Intensity: 7.21
[4]; 3 ppb in alcohol solution at 17.5% ABV
  alcohol sensation: slight but noticeable increase in alcohol sensation
[4]; 200 ppb in alcohol solution at 17.5% ABV
  enhancement of alcohol sensation: reached a stable plateau
[4]; at a higher concentration than 3 ppb in alcohol solution at 17.5% ABV
  alcohol sensation: clear increase of alcohol intensity
[5]
  Carbonation Intensity: 7.19
[6]
  carbonation sensation: provided enhancement of carbonation sensation
[7]
  alcohol impression, equal level as alcohol solution: 2.5 % ABV
[8]
  flavor of β-sitosterol itself: no noticeable flavor
